This note sets out measurements from ChEMBL document CHEMBL6103617, “Chromene Dimers from Cultures of Basidiomycete Panus similis” (J Nat Prod, 2025).

One data set concerns NCI-H187. Briefly: Cytotoxicity against human NCI-H187 cells by resazurin staining based analysis. The data set is classed as functional, cell-based.
The nature of data set [1]: Cytotoxicity against African green monkey Vero cells by green fluorescent protein-based assay. The data set is classed as toxicity, cell-based. As to conditions: African green monkey (Chlorocebus sabaeus).
The nature of data set [2]: Antioxidant activity assessed as DPPH radical scavenging activity incubated for 30 min by DPPH assay. The format is functional.
Another data set concerns MCF7. Briefly: Cytotoxicity against human MCF7 cells by resazurin staining based analysis. The format is functional, cell-based.

Regarding `Cc1c2ccncc2c(C)c2c1[nH]c1ccccc12` [ELLIPTECINE], the IC50 is 7.8 µM in the data set with NCI-H187 and more than 5.4 µM in data set [1].

In the case of `CC1(C)Oc2ccc(O)cc2C(O)C1O` (stereo not given), the IC50 with NCI-H187 is 9.1 µM; in data set [2], more than 1900 µM; in data set [1], more than 240 µM; with MCF7 it was more than 240 µM.

On to `COc1cc2c(cc1O)OC(C)(C)[C@H]1[C@H]3[C@@H](O[C@@H]21)c1cc(OC)c(O)cc1OC3(C)C` (racemic), for which the IC50 in the data set with NCI-H187 is more than 120 µM; in data set [2], 540 µM; in data set [1], more than 120 µM; in the data set on MCF7 it was more than 120 µM.

As for `COc1cc2c(cc1O)OC(C)(C)C(O)C2` (racemic), the IC50 in the data set on NCI-H187 is 55 µM; in data set [2], 180 µM; in data set [1] it was more than 220 µM; in the data set with MCF7, more than 220 µM.

In the case of `CC/C(=C(\c1ccccc1)c1ccc(OCCN(C)C)cc1)c1ccccc1` [TAMOXIFEN], the IC50 in the data set with MCF7 was found to be 23 µM.

On to `CC1(C)C=Cc2cc3c(cc2O1)O[C@@H]1c2cc(O)c(O)cc2OC(C)(C)[C@@H]1O3` (racemic), for which the IC50 stood at 45 µM in the data set with NCI-H187, 370 µM in data set [2], 46 µM in data set [1] and 66 µM with MCF7.

In the case of `COc1cccc2c1C(=O)c1c(O)c3c(c(O)c1C2=O)C[C@@](O)(C(=O)CO)C[C@@H]3O[C@H]1C[C@H](N)[C@H](O)[C@H](C)O1` [DOXORUBICIN], the IC50 in the data set on NCI-H187 amounted to 0.084 µM; with MCF7 it was 12 µM.

Take `COc1ccc2c(c1)C(O)C(O)C(C)(C)O2` (stereo not given): the IC50 in the data set on NCI-H187 was more than 230 µM; in data set [2], more than 1800 µM; in data set [1], 220 µM; with MCF7, more than 220 µM.

In the case of `CC1(C)Oc2cc(O)c(O)cc2[C@@H]2O[C@H]3c4cc(O)c(O)cc4OC(C)(C)[C@H]3[C@@H]21` (racemic), the IC50 in the data set on NCI-H187 was 48 µM; in data set [2] it was 66 µM; in data set [1] it was more than 130 µM; in the data set on MCF7 it was more than 130 µM.

For `O=C1O[C@H]([C@@H](O)CO)C(O)=C1O` [ASCORBIC ACID], the IC50 in data set [2] came out at 68 µM.
